Source: PubChem BioAssay AID2743 (NMMLSC, 2010)
Active and inactive are the calls of the source.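 The calls were made as follows: active = fitted half-maximal concentration for change in GFP expression of 33 µM or less; inactive = the rest.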

Experiment: potency of AGP1-GFP expression modulators in yeast, dose response, cell-based, flow cytometry, S. cerevisiae, MLPCN hits (AID 2743)
Conditions: S. cerevisiae AGP1-GFP strain, flow cytometry GFP, 3 h; at 33 µM (top of the series)

Compound | GFP fluorescence (kMESF)
CCOC(=O)COc1ccc2ccccc2c1/C=C/[N+](=O)[O-] | 29.3 kMESF (inactive)
Cc1ccnc(N2C(=O)c3cccc4c([N+](=O)[O-])ccc(c34)C2=O)c1 | 54.7 kMESF (inactive)
CC(=O)Oc1ccc(N2C(=O)C3C4C=CC(CO)(O4)C3C2=O)cc1 (stereo not given) | 41.3 kMESF (inactive)
CCCCNc1c2c3c(cccc3n(C)c1=O)C(=O)c1ccccc1-2 | 36.3 kMESF (inactive)
COc1cc(/C=C2/C(=O)c3cccc([N+](=O)[O-])c3C2=O)c(Br)cc1O | 32.9 kMESF (inactive)
O=S(=O)(/N=C(\Sc1ccc(Cl)cc1)c1ccccc1)c1ccccc1 | 36.1 kMESF (inactive)
O=C(c1ccccc1)c1ccccc1N1C(=O)C=CC1=O | 38 kMESF (inactive)
CCCc1nnc(NC(=O)c2c(O)c3cccc4c3n(c2=O)CCC4)s1 | 2.53 kMESF (inactive)
CCCS(=O)(=O)c1nnnn1-c1cccc(OC)c1 | 35.1 kMESF (inactive)
COc1ccc([N+](=O)[O-])c(S(=O)(=O)c2ccccc2)n1 | 47.5 kMESF (inactive)
Cc1ccc2[nH]c(C)c(/C=C/c3cc[n+](C)cc3)c2c1 | 38.4 kMESF (inactive)
CC(=O)n1cc(C(C[N+](=O)[O-])SCCN)c2ccccc21 (stereo not given) | 28.8 kMESF (inactive)
O=C1ON=C(c2ccccc2)/C1=C/c1ccc(-c2ccccc2[N+](=O)[O-])o1 | 29.1 kMESF (inactive)
O=[N+]([O-])c1ccc(-c2cn3nc(-c4ccccc4)c(-c4ccccc4)nc3n2)cc1 | 39.6 kMESF (inactive)
CC(C)[C@@]1(c2ccc(Cl)cc2)ON(c2ccccc2C(F)(F)F)C1=O | 40.5 kMESF (inactive)
CC(C)(C)c1nnc(N/N=C/c2cc(Br)ccc2O)n(N)c1=O | 34.2 kMESF (inactive)
C/C(=N\NC(=O)c1cc2ccccc2cc1O)c1ccccn1 | 47.9 kMESF (inactive)
O=C1c2cccc3c([N+](=O)[O-])ccc(c23)C(=O)N1c1ccccn1 | 35.2 kMESF (inactive)
CCC(=O)Oc1oc(-c2ccccc2)nc1C=Nc1ccccc1OC | 42.9 kMESF (inactive)
CC(Oc1cccc(Cl)c1)C(=O)Nc1nc(-c2ccccn2)cs1 (stereo not given) | 50.7 kMESF (inactive)
COc1ccc(N2C(=O)C(Cl)=C(NCc3ccccc3)C2=O)cc1 | 40.6 kMESF (inactive)
O=C1CCN(S(=O)(=O)c2ccccc2)CCN1CCOCc1ccc(F)cc1 | 33.5 kMESF (inactive)
Oc1ccc(COCc2ccccc2)c2cccnc12 | 36.3 kMESF (inactive)

Compound | GFP fluorescence (kMESF)
O=C1C2C3C=CC(CO)(O3)C2C(=O)N1c1ccccc1-c1ccccc1 (stereo not given) | 36.3 kMESF (inactive)
CCN1/C(=C/C(C)=C/c2sc3ccccc3[n+]2CC)Sc2ccccc21 | 47.5 kMESF (inactive)
CC1(C(=O)NC(=S)NNC(=O)c2ccncc2)CCCCC1 | 34.2 kMESF (inactive)
O=C(CSC1=NS(=O)(=O)c2ccccc21)Nc1ccccc1 | 27.1 kMESF (inactive)
Nc1nc(N)c2nc(CNc3ccc(C(=O)NC(CCC(=O)O)C(=O)O)cc3)cnc2n1 (stereo not given) | 46 kMESF (inactive)
CCN(CC(=O)Nc1cc(S(=O)(=O)N2CCOCC2)ccc1Cl)Cc1ccccc1 | 37.6 kMESF (inactive)
O=C1/C(=C\c2ccc(O)c(O)c2)SC(=S)N1Cc1ccccc1 | 10.8 kMESF (inactive)
Cc1cc(C)c(S(=O)(=O)N2CCC(C(=O)NCc3ccc(Cl)cc3Cl)CC2)c(C)c1 | 37.4 kMESF (inactive)
COc1ccccc1-c1nc2s/c(=C\c3cccs3)c(=O)n2n1 | 27.7 kMESF (inactive)
CCCCCCCCCCCCCCCC[n+]1cccc2ccccc21 | 2.67 kMESF (inactive)
O=C(Nc1nnc(-c2ccc3c(c2)CCCC3)o1)c1ccc(Cl)cc1Cl | 20.9 kMESF (inactive)
COc1ccc(NC2=C(Cl)C(=O)N(CCc3ccccc3)C2=O)c(OC)c1 | 35.3 kMESF (inactive)
O=C1C=CC(=O)N1c1ccc(O)cc1 | 48.3 kMESF (inactive)
CCOC(=O)C1=C(O)c2ccccc2C(=O)/C1=C\c1ccc(C)cc1 | -4.85 kMESF (inactive)
Cc1ccc(C(CC(=O)O)NC(=O)c2ccc(S(=O)(=O)N3CC(C)OC(C)C3)cc2)cc1 (stereo not given) | 36.9 kMESF (inactive)
C[C@@]12C(=O)OC(=O)[C@]1(C)C1CCC2O1 | 32.6 kMESF (inactive)
COc1ccccc1[C@]1(C)ON(c2ccccc2C(F)(F)F)C1=O | 30.3 kMESF (inactive)
COc1ccccc1N=Nc1ccc(O)c2ncccc12 | 49.5 kMESF (inactive)
CC(Oc1ccc(Br)cc1)C(=O)Nc1nc(-c2ccccn2)cs1 (stereo not given) | 46.5 kMESF (inactive)
CCCCc1ccc(NC(=O)CC(C)=O)cc1 | 37.2 kMESF (inactive)
COc1cc(N2C(=O)C=CC2=O)c(OC)cc1Cl | 33.8 kMESF (inactive)
CCCCC(=O)NNC(=S)NC(=O)c1ccc(C)cc1 | 58.2 kMESF (inactive)
